The values that follow come from patent US20080200532A1 (Teva Pharmaceuticals USA, Inc. for Barbados, priority 2003, published 2008).

For data set [1] the following is noted: according to the '340 patent; cited from earlier work.
The nature of data set [2]: Stability studies, appearance after storage. The format is physicochemical. The conditions noted are these: storage at 40 EC for three months.
The nature of data set [3]: Stability study of Form XIV, polymorph content by X-Ray Powder Diffraction analysis. Format: physicochemical. The text has this:
[table] Powder X-ray diffraction data were obtained using methods known in the art on a […] powder X-ray diffractometer model X'TRA equipped with a solid state detector. Copper radiation of 1.5418 Å was used. A round aluminum sample holder with zero background was used.

SMILES strings stand for the structures.

With `CC(C)n1c(/C=C/[C@@H](O)C[C@@H](O)CC(=O)O)c(-c2ccc(F)cc2)c2ccccc21` (racemic) [Form B, fluvastatin sodium], the Hygroscopicity result in data set [1] is “low hygroscopicity”.
`CC(C)n1c(/C=C/[C@@H](O)C[C@@H](O)CC(=O)O)c(-c2ccc(F)cc2)c2ccccc21` (relative stereo) [Form XIV, [R*,S*-(E)]-(±)-7-[3-(4-fluorophenyl)-1-(1-methylethyl)-1H-indol-2-yl]-3,5-dihydroxy-6-heptenoic acid monosodium]: the “Change of appearance (white to pale yellow powder) after storage” value in data set [2] is recorded as “does not change”. Also, the “Polymorph content by X-Ray Powder Diffraction analysis” value in data set [3] (25° C., 60% RH, 1 M) was “XIV”; in data set [3] (25° C., 60% RH, 2 M) it was “XIV”; in data set [3] (25° C., 60% RH, 3 M), “XIV”; in data set [3] (40° C., 75% RH, 1 M), “XIV”; in data set [3] (40° C., 75% RH, 2 M), “XIV”; in data set [3] (40° C., 75% RH, 3 M) it was “XIV”. The “Polymorph content by X-Ray Powder Diffraction analysis” value in data set [3] (55° C., 1 M) is “XIV”; in data set [3] (55° C., 2 M), “XIV”; in data set [3] (55° C., 3 M) it was “XIV”; in data set [3] (t = 0), “XIV”. Besides, in data set [3] (storage at 25, 40 and 55° C., for at least 3 months), the “Transformation into Form B upon storage” value was “no more than 5%”.
